This experiment has as its system P388 leukemia ip, CD2F1 mice, survival T/C. As to the kind of experiment: NCI In Vivo Anticancer Drug Screen. Data for tumor model P388 Leukemia (intraperitoneal) in CD2F1 (CDF1) mice. Conditions: endpoint: median survival time, higher = longer survival. The procedure, abridged: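 Mice carrying the transplanted tumor received test compound or vehicle. Survival was recorded in each group, and the value is the treated-group measurement divided by that of the vehicle-treated control group.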

Where [1] appears, read: dose: 50.0 mg/kg/injection, schedule: Q01DX009 (ip), vehicle: saline with Tween-80.
The mark [2] stands for this setting: dose: 100.0 mg/kg/injection, schedule: Q01DX009 (ip), vehicle: saline with Tween-80.
Where [3] appears, read: dose: 200.0 mg/kg/injection, schedule: Q01DX009 (ip), vehicle: saline with Tween-80.
Setting [4] is: dose: 100.0 mg/kg/injection, schedule: Q04DX003 (ip), vehicle: saline.
[5] abbreviates: dose: 200.0 mg/kg/injection, schedule: Q04DX003 (ip), vehicle: saline.
Setting [6] is: dose: 400.0 mg/kg/injection, schedule: Q04DX003 (ip), vehicle: saline.
The mark [7] stands for this setting: dose: 50.0 mg/kg/injection, schedule: Q01DX009 (ip), vehicle: suspension in saline.
Setting [8] is: dose: 100.0 mg/kg/injection, schedule: Q01DX009 (ip), vehicle: suspension in saline.
The mark [9] stands for this setting: dose: 200.0 mg/kg/injection, schedule: Q01DX009 (ip), vehicle: suspension in saline.

The structures appear in SMILES notation. Where “and” joins values, the source holds several entries; their conditions need not be identical. Equal entries are not always repeated. Inconclusive results and toxic doses are left out.

`CSc1nnc2n(N)cnn12`: the T/C reads like this: (dose: 100.0 mg/kg/injection, schedule: Q04DX002 (ip), vehicle: water) 107 % of control; (dose: 200.0 mg/kg/injection, schedule: Q04DX002 (ip), vehicle: water) 106 % of control; (dose: 400.0 mg/kg/injection, schedule: Q04DX002 (ip), vehicle: water) 106 % of control.
Regarding `CCN(CC)CCNc1ccc(C)c2oc3ccc(O)cc3c(=O)c12`, the T/C is 106 % of control (dose: 12.5 mg/kg/injection, schedule: Q01DX005 (ip), vehicle: distilled water + Tween-80); 106 % of control (dose: 25.0 mg/kg/injection, schedule: Q01DX005 (ip), vehicle: distilled water + Tween-80); 117 % of control (dose: 50.0 mg/kg/injection, schedule: Q01DX005 (ip), vehicle: distilled water + Tween-80).
Take `Cc1ccc(CCN(S(=O)(=O)c2ccc(C)cc2)S(=O)(=O)c2ccc(C)cc2)cc1`: the T/C by setting is: (dose: 50.0 mg/kg/injection, schedule: Q01DX009 (ip), vehicle: Klucel (hydroxypropylcellulose) (HPC)) 92 % of control; (dose: 100.0 mg/kg/injection, schedule: Q01DX009 (ip), vehicle: Klucel (hydroxypropylcellulose) (HPC)) 96 % of control; (dose: 200.0 mg/kg/injection, schedule: Q01DX009 (ip), vehicle: Klucel (hydroxypropylcellulose) (HPC)) 86 % of control.
On to `Cc1cccn2c([N+](=O)[O-])cnc12`, for which the T/C is 102 % of control under setting [1], 120 % of control under setting [2] and 113 % of control under setting [3].
As for `CCCCCCCCCCCCCCCc1ccc(C(=O)C[n+]2ccccc2)cc1`, the T/C reads like this: (dose: 6.25 mg/kg/injection, schedule: Q04DX003 (ip), vehicle: saline with Tween-80) 109 % of control; (dose: 12.5 mg/kg/injection, schedule: Q04DX003 (ip), vehicle: saline with Tween-80) 118 % of control; (dose: 16.5 mg/kg/injection, schedule: Q04DX003 (ip), vehicle: saline with Tween-80) 95 % of control; (dose: 25.0 mg/kg/injection, schedule: Q04DX003 (ip), vehicle: saline with Tween-80) 100 % of control.
As for `COc1ccc(-n2c(=O)[nH]c3ccccc3c2=O)cc1`, the T/C by setting is: under setting [1], 108 % of control; under setting [2], 100 % of control; under setting [3], 104 % of control.
Take `CN1NC(C)(c2cccnc2)SC1=S` (stereo not drawn): the T/C was 95 % of control under setting [1], 100 % of control under setting [2] and 97 % of control under setting [3].
In the case of `O=C(O)CS(=O)NN(c1ccccc1)c1ccccc1` (stereo not drawn), the T/C by setting is: (dose: 100.0 mg/kg/injection, schedule: Q04DX002 (ip), vehicle: saline with Tween-80) 102 % of control; (dose: 200.0 mg/kg/injection, schedule: Q04DX002 (ip), vehicle: saline with Tween-80) 102 % of control.
On to `[C-]#[O+].[C-]#[O+].[C-]#[O+].[CH3][Sn]([c]1ccccc1)[c]1ccccc1.[W].[c-]1[c-][c-][cH-][c-]1`, for which the T/C was 103 % of control under setting [4], 110 % of control under setting [5] and 110 % of control under setting [6].
In the case of `O=[N+]([O-])c1ccc(/C=C/Oc2ccccc2)o1`, the T/C is 111 % of control under setting [7], 110 % of control under setting [8] and 111 % of control under setting [9].
Take `COc1cc[c]([Pb]([O]C(C)=O)([O]C(C)=O)[O]C(C)=O)cc1`: the T/C by setting is: (dose: 100.0 mg/kg/injection, schedule: Q04DX003 (ip), vehicle: saline with Tween-80) 103 % of control; (dose: 200.0 mg/kg/injection, schedule: Q04DX003 (ip), vehicle: saline with Tween-80) 103 % of control; (dose: 400.0 mg/kg/injection, schedule: Q04DX003 (ip), vehicle: saline with Tween-80) 111 % of control.
As for `Clc1c2ccccc2nc2ccccc12`, the T/C by setting is: (dose: 50.0 mg/kg/injection, schedule: Q01DX005 (ip), vehicle: saline with Tween-80) 98 % of control; (dose: 100.0 mg/kg/injection, schedule: Q01DX005 (ip), vehicle: saline with Tween-80) 91 % of control; (dose: 200.0 mg/kg/injection, schedule: Q01DX005 (ip), vehicle: saline with Tween-80) 98 % of control.
In the case of `O=C(c1cccs1)C1SC(C(=O)c2cccs2)C2(O)c3cccc4cccc(c34)C12O` (stereo not drawn), the T/C (dose: 7.5 mg/kg/injection, schedule: Q01DX009 (ip), vehicle: Klucel (hydroxypropylcellulose) (HPC)) was 100 % of control.
As for `COc1ccc2c(c1)C(O)NC(=O)O2` (stereo not drawn), the T/C runs as follows: (dose: 50.0 mg/kg/injection, schedule: Q01DX005 (ip), vehicle: Klucel (hydroxypropylcellulose) (HPC)) 98 % of control; (dose: 100.0 mg/kg/injection, schedule: Q01DX005 (ip), vehicle: Klucel (hydroxypropylcellulose) (HPC)) 103 % of control; (dose: 200.0 mg/kg/injection, schedule: Q01DX005 (ip), vehicle: Klucel (hydroxypropylcellulose) (HPC)) 119 % of control.
As to `Cc1[nH]nc2c(NCc3ccco3)ncnc12`, the T/C is 98 % of control (dose: 25.0 mg/kg/injection, schedule: Q04DX003 (ip), vehicle: saline); 104 % of control (dose: 50.0 mg/kg/injection, schedule: Q04DX003 (ip), vehicle: saline); 101 % of control under setting [4]; 95 % of control under setting [5].
As for `CC(C)N(c1ccnc(F)n1)C(C)C`, the T/C by setting is: (dose: 30.0 mg/kg/injection, schedule: Q01DX005 (ip), vehicle: Klucel (hydroxypropylcellulose) (HPC)) 102 % of control; (dose: 60.0 mg/kg/injection, schedule: Q01DX005 (ip), vehicle: Klucel (hydroxypropylcellulose) (HPC)) 104 % of control.
For the compound `O=NN(CCCl)C(=O)NC1CCCCC1`, the T/C was 118 % of control (dose: 1.0 mg/kg/injection, schedule: Q01DX009 (ip), vehicle: saline with Tween-80); 168 % of control (dose: 4.0 mg/kg/injection, schedule: Q01DX009 (ip), vehicle: saline with Tween-80); 204 % of control (dose: 7.2 mg/kg/injection, schedule: Q04DX003 (ip), vehicle: saline + alcohol); 218 % of control and 240 % of control (dose: 8.0 mg/kg/injection, schedule: Q01DX009 (ip), vehicle: saline with Tween-80); 154 % of control (dose: 12.0 mg/kg/injection, schedule: Q04DX003 (ip), vehicle: carboxymethylcellulose (CMC)); 339 % of control (dose: 12.0 mg/kg/injection, schedule: Q04DX003 (ip), vehicle: saline + alcohol). The T/C was 272 % of control (dose: 16.0 mg/kg/injection, schedule: Q01DX009 (ip), vehicle: saline with Tween-80); 190 % of control and 191 % of control (dose: 18.0 mg/kg/injection, schedule: Q04DX003 (ip), vehicle: carboxymethylcellulose (CMC)); 412 % of control (dose: 20.0 mg/kg/injection, schedule: Q04DX003 (ip), vehicle: saline + alcohol); 227 % of control and 243 % of control (dose: 27.0 mg/kg/injection, schedule: Q04DX003 (ip), vehicle: carboxymethylcellulose (CMC)); 119 % of control (dose: 33.3 mg/kg/injection, schedule: Q04DX003 (ip), vehicle: saline + alcohol); 304 % of control and 538 % of control (dose: 40.0 mg/kg/injection, schedule: Q04DX003 (ip), vehicle: carboxymethylcellulose (CMC)). For the same compound, the T/C is 250 % of control and 265 % of control (dose: 64.0 mg/kg/injection, schedule: Q01DX001 (ip), vehicle: saline + alcohol); 168 % of control (dose: 128.0 mg/kg/injection, schedule: Q01DX001 (ip), vehicle: saline + alcohol).
For the compound `COc1ccc(C(=O)C(CN(C)C)CN(C)C)cc1OC`, the T/C reads like this: (dose: 6.25 mg/kg/injection, schedule: Q01DX005 (ip), vehicle: saline) 113 % of control; (dose: 12.5 mg/kg/injection, schedule: Q01DX005 (ip), vehicle: saline) 117 % of control and 124 % of control; (dose: 25.0 mg/kg/injection, schedule: Q01DX005 (ip), vehicle: saline) 117 % of control and 121 % of control; (dose: 50.0 mg/kg/injection, schedule: Q01DX005 (ip), vehicle: saline) 112 % of control.
Turning to `O=C1CSC(=S)N1c1ccccc1C(F)(F)F`, the T/C under setting [7] is 91 % of control, the T/C under setting [8] is 96 % of control and the T/C under setting [9] is 93 % of control.
Regarding `O=C(O)c1c[nH]c2cc(OCc3ccc(Br)cc3)ccc2c1=O`, the T/C is, setting by setting: (dose: 50.0 mg/kg/injection, schedule: Q01DX009 (ip), vehicle: saline) 96 % of control; (dose: 100.0 mg/kg/injection, schedule: Q01DX009 (ip), vehicle: saline) 89 % of control; (dose: 200.0 mg/kg/injection, schedule: Q01DX009 (ip), vehicle: saline) 86 % of control.
As for `CCSC(=O)OCC(F)([N+](=O)[O-])[N+](=O)[O-]`, the T/C by setting is: under setting [4], 108 % of control; under setting [5], 100 % of control; under setting [6], 104 % of control.

Source of the values: PubChem BioAssay AID330 (DTP/NCI, 2004).
